From patent US12653809B2, “Urea, amide, and substituted heteroaryl compounds for CBL-B inhibition” (Nurix Therapeutics, Inc., priority 2019, dated 2026) come the findings set out here.

Read-outs that look alike come from different tables or passages of the source.

In general, IC50 refers to the concentration that inhibits the measured activity by half.

The target of the assay is T1, Cbl-b (truncated variant, UniProt number Q13191) (Homo sapiens, UniProt Q13191).
T1 construct: made in house
In words: Cbl-b activity assay (TR-FRET, interaction of Cbl-b with UbcH5B-Ub). The format is biochemical. An excerpt:
As described in Biological Example 1A, a Cbl-b activity assay (Cbl-b inhibition assay) used to measure the IC50 values for Cbl-b inhibition uses a mixture comprising candidate compound, Cbl-b (truncated, with an Avitag, and biotinylated), a fluorescently-labeled E2 enzyme UbcH5B labelled with ubiquitin conjugated to BODIPY-fluorescein (UbcH5B-Ub), streptavidin-terbium, and assay buffer. In one embodiment, the Cbl-b activity assay (Cbl-b inhibition assay) used to measure IC50 for inhibition of Cbl-b uses the conditions described in Biological Example 1A with 12 nM Cbl-b. […] In another embodiment, the Cbl-b activity assay (Cbl-b inhibition assay) used to measure IC50 for inhibition of Cbl-b uses the conditions described in Biological Example 1B, with candidate compound, 0.125 nM Cbl-b (truncated, with an avitag, and biotinylated), fluorescently labelled inhibitor probe, and assay buffer. Displacement of the inhibitor probe indicates Cbl-b activity.
Candidate compounds isolated from screening assays were evaluated for their ability to bind and inhibit Cbl-b, an E3 ubiquitin-protein ligase.
The ability of candidate compounds to inhibit Cbl-b activity was measured by monitoring the interaction of Cbl-b with UbcH5B-Ub in the presence of the candidate compound. A truncated variant of Cbl-b (UniProt number Q13191; SEQ ID NO:1) containing an Avitag at its N-terminus was co-expressed with BirA biotin ligase and purified using a standard protocol (see Dou et al., Nature Structural and Molecular Biology 8: 982-987, 2013; Avidity LLC).
Fluorescently labeled UbcH5B-Ub was prepared by conjugating ubiquitin (Ub), labeled at its N-terminus with Bodipy-Fluorescein, to UbcH5B, an E2 enzyme, harboring a cysteine to lysine mutation at position 85. This mutation is similar to a mutation that was previously reported (see Dou et al., Nature Structural and Molecular Biology 8: 982-987, 2013). Cbl-b activity assays were performed in a 384-well plate at room temperature in a 10 μL reaction volume by pre-incubating 12 nM Cbl-b (final concentration) in an assay buffer containing 50 mM HEPES pH 7.0, 100 mM NaCl, 0.01% Triton X-100, 0.01% BSA, and 1 mM DTT in the presence of a candidate compound in 1% DMSO (final concentration, High Conditions) for one hour. After incubation in the presence of the candidate compound, the plate was incubated for an additional 1.5 hours in the presence of 60 nM Src kinase with 1 mM ATP and 5 mM MgCl2 (final concentrations). Alternatively, compounds were tested as described above with assay buffer containing 50 mM NaCl instead of 100 mM NaCl and 30 nM Src kinase instead of 60 nM Src kinase (Low Conditions). Src kinase was prepared as previously described (see Kobashigawa et al., Proc Natl Acad Sci USA, 108: 20579-20584, 2011). […] The plate was incubated for one hour. Following the one hour incubation, the plates were read for TR-FRET signal at 520/620 nm using Envision plate reader (Perkin Elmer). The presence of a FRET signal that indicated Cbl-b was not inhibited by the compound candidate. The absence of a FRET signal indicated Cbl-b was inhibited by the compound candidate and was therefore a Cbl-b inhibitor.
The resulting data for the Cbl-b activity assays were analyzed using standard methods to report the IC50 values of the tested compounds (Tables 3-4). The resulting data for the Cbl-b binding assay was solvent corrected and double-referenced prior to analysis. All data were globally fit to a steady-state affinity and kinetic binding model where applicable. Compounds were ranked into bins A through D as follows for IC50: A indicates <0.1 μM, B indicates 0.1 μM≤IC50<1 μM, C indicates 1 μM≤IC50<5 μM, and D indicates 5 μM≤IC50.

The mark [1] stands for this setting: Biological Example 1A, low or high conditions not stated, read-out: IC50 values in the Cbl-b inhibition assay of Biological Example 1A.
Where [2] appears, read: high conditions: 100 mM NaCl, 60 nM Src kinase, 12 nM Cbl-b, read-out: Cbl-b activity IC50.

T1 sequence (Q13191 36-427): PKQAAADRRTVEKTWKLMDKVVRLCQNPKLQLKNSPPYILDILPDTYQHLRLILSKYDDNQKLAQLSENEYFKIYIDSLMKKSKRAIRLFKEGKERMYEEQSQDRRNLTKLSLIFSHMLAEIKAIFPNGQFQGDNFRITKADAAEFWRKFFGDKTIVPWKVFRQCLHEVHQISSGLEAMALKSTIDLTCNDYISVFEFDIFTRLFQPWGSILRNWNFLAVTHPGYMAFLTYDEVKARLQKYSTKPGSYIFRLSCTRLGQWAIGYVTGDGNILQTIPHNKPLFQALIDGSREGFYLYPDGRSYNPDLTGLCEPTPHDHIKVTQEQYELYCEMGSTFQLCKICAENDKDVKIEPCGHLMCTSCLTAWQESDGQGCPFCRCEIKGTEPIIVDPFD

As for `C[C@H](Sc1nncn1C)c1cccc(-c2cc(-c3ccccc3)no2)c1` [Example 67, (S)-5-(3-(1-((4-methyl-4H-1,2,4-triazol-3-yl)thio)ethyl)phenyl)-3-phenylisoxazole], the IC50 reads like this: under setting [1], 1000 to 5000 nM; under setting [2], 1000 to 5000 nM.
`C[C@H](Cc1nncn1C)c1cccc(-c2n[nH]c3c(N4CCC(O)CC4)ccnc23)c1` [Example 117, (R)-1-(3-(3-(1-(4-methyl-4H-1,2,4-triazol-3-yl)propan-2-yl)phenyl)-1H-pyrazolo[4,3-b]pyridin-7-yl)piperidin-4-ol]: under setting [2], the IC50 was in the range of 1000 to 5000 nM.
Consider `C[C@H](Cc1nncn1C)c1cccc(NC(=O)N2CCOc3cccnc32)c1` [Example 10, (R)—N-(3-(1-(4-methyl-4H-1,2,4-triazol-3-yl)propan-2-yl)phenyl)-2,3-dihydro-4H-pyrido[3,2-b][1,4]oxazine-4-carboxamide], for which the IC50 is, setting by setting: under setting [1], below 100 nM; under setting [2], below 100 nM.
For the compound `Cn1cnnc1C(F)(F)[C@](C)(F)c1cccc(NC(=O)N2CC3(CNC3)Oc3cccnc32)c1` [Example 28, (R)—N-(3-(1,1,2-trifluoro-1-(4-methyl-4H-1,2,4-triazol-3-yl)propan-2-yl)phenyl)spiro[azetidine-3,2′-pyrido[3,2-b][1,4]oxazine]-4′(3′H)-carboxamide], the IC50 under setting [2] was below 100 nM.
For the compound `C[C@H](Cc1nncn1C)c1cccc(NC(=O)N2CCCc3cccnc32)c1` [Example 9, (R)—N-(3-(1-(4-methyl-4H-1,2,4-triazol-3-yl)propan-2-yl)phenyl)-3,4-dihydro-1,8-naphthyridine-1(2H)-carboxamide], the IC50 is 100 to 1000 nM under setting [1] and 100 to 1000 nM under setting [2].
As for `C[C@@H](Sc1nncn1C)c1cccc(-n2ncc(-c3ccccc3)n2)c1` [Example 100, (R)-2-(3-(1-((4-methyl-4H-1,2,4-triazol-3-yl)thio)ethyl)phenyl)-4-phenyl-2H-1,2,3-triazole], the half-inhibitory concentration (IC50) under setting [1] was at least 5000 nM and the IC50 under setting [2] is at least 5000 nM.
On to `C[C@H](Cc1nncn1C)c1cccc(-c2n[nH]c3cccnc23)c1` [Example 118, (R)-3-(3-(1-(4-methyl-4H-1,2,4-triazol-3-yl)propan-2-yl)phenyl)-1H-pyrazolo[4,3-b]pyridine], for which the IC50 under setting [2] is 1000 to 5000 nM.
As for `COc1cccc(-c2cc(-c3cccc(C(C)Sc4nncn4C)c3)[nH]n2)c1` (stereo not shown) [Example 104, 3-((1-(3-(3-(3-methoxyphenyl)-1H-pyrazol-5-yl)phenyl)ethyl)thio)-4-methyl-4H-1,2,4-triazole], the IC50 is 1000 to 5000 nM under setting [1] and 1000 to 5000 nM under setting [2].
On to `C[C@H](Sc1nncn1C)c1cccc(-c2cc(-c3cccc(C#N)c3)no2)c1` [Example 62, (S)-3-(5-(3-(1-(4-methyl-4H-1,2,4-triazol-3-ylthio)ethyl)phenyl)isoxazol-3-yl)benzonitrile], for which the IC50 under setting [2] fell in the range of 1000 to 5000 nM.
`C[C@H](Sc1nncn1C)c1cccc(NC(=O)N2CCC(c3ccccn3)C2)c1` (stereo partly drawn) [Example 157, N-(3-((S)-1-((4-methyl-4H-1,2,4-triazol-3-yl)thio)ethyl)phenyl)-3-(pyridin-2-yl)pyrrolidine-1-carboxamide]: the IC50 under setting [2] is at least 5000 nM.
Take `C[C@H](Sc1nncn1C)c1cccc(-c2cc(-c3ccc(C(=O)O)cc3)no2)c1` [Example 63, 4-(5-{3-[(1S)-1-[(4-methyl-4H-1,2,4-triazol-3-yl)sulfanyl]ethyl]phenyl}-1,2-oxazol-3-yl)benzoic acid]: the IC50 was at least 5000 nM under setting [1] and at least 5000 nM under setting [2].
Regarding `C[C@H](Sc1nncn1C)c1cccc(NC(=O)N2CCO[C@H]([C@H]3CCCO3)C2)c1` [Example 135, (S)—N-(3-((S)-1-((4-methyl-4H-1,2,4-triazol-3-yl)thio)ethyl)phenyl)-2-((R)-tetrahydrofuran-2-yl)morpholine-4-carboxamide], the IC50 under setting [2] was at least 5000 nM.
With `CC(Sc1nncn1C)c1cccc(-n2cc(-c3ccccc3)nn2)c1` (stereo not shown) [Example 167, 1-(3-(1-((4-methyl-4H-1,2,4-triazol-3-yl)thio)ethyl)phenyl)-4-phenyl-1H-1,2,3-triazole], the IC50 is, setting by setting: under setting [1], 1000 to 5000 nM; under setting [2], 1000 to 5000 nM.
With `C[C@H](Sc1nncn1C)c1cccc(NC(=O)N2CCOCC2CO)c1` (stereo partly drawn) [Example 146, 3-(hydroxymethyl)-N-(3-((S)-1-((4-methyl-4H-1,2,4-triazol-3-yl)thio)ethyl)phenyl)morpholine-4-carboxamide], the IC50 under setting [2] is at least 5000 nM.
In the case of `C[C@H](Sc1nncn1C)c1cccc(-n2ncc(-c3ccc(CO)cc3)n2)c1` [Example 84, (S)-(4-(2-(3-(1-(4-methyl-4H-1,2,4-triazol-3-ylthio)ethyl)phenyl)-2H-1,2,3-triazol-4-yl)phenyl)methanol], the IC50 fell in the range of 1000 to 5000 nM under setting [1] and 1000 to 5000 nM under setting [2].
For `CC(Sc1nncn1C)c1ccnc(-n2ncc(-c3ccccc3)n2)c1` (stereo not shown) [Example 101, 4-(1-((4-methyl-4H-1,2,4-triazol-3-yl)thio)ethyl)-2-(4-phenyl-2H-1,2,3-triazol-2-yl)pyridine], the IC50 was at least 5000 nM under setting [1] and at least 5000 nM under setting [2].
Take `CC1CN(C(=O)Nc2cccc([C@H](C)Sc3nncn3C)c2)CC(C)O1` (stereo partly drawn) [Example 42, 2,6-dimethyl-N-(3-((S)-1-((4-methyl-4H-1,2,4-triazol-3-yl)thio)ethyl)phenyl)morpholine-4-carboxamide]: under setting [2], the IC50 is at least 5000 nM.
In the case of `C[C@H](Sc1nncn1C)c1cccc(NC(=O)N2CCC(C(F)F)C2)c1` (stereo partly drawn) [Example 47, 3-(difluoromethyl)-N-(3-((S)-1-((4-methyl-4H-1,2,4-triazol-3-yl)thio)ethyl)phenyl)pyrrolidine-1-carboxamide], the half-maximal inhibitory concentration (IC50) under setting [2] is at least 5000 nM.
`Cn1cnnc1CC1(c2cccc(NC(=O)N3CC4(CCNCC4)c4cccnc43)c2)COC1` [Example 30, N-(3-(3-((4-methyl-4H-1,2,4-triazol-3-yl)methyl)oxetan-3-yl)phenyl)spiro[piperidine-4,3′-pyrrolo[2,3-b]pyridine]-1′(2′H)-carboxamide]: the concentration for half-maximal inhibition (IC50) under setting [2] was below 100 nM.
On the same count and under the same terms, the same measure for `C[C@H](Sc1nncn1C)c1cccc(-c2cc(-c3ccc(Cl)cc3)no2)c1` [Example 57, (S)-3-(4-chlorophenyl)-5-(3-(1-((4-methyl-4H-1,2,4-triazol-3-yl)thio)ethyl)phenyl)isoxazole]: 1000 to 5000 nM.
On to `Cc1cccc(-c2cc(-c3cccc([C@H](C)Sc4nncn4C)c3)on2)c1` [Example 56, 4-methyl-3-[[(1S)-1-[3-[3-(3-methylphenyl)-1,2-oxazol-5-yl]phenyl]ethyl]sulfanyl]-4H-1,2,4-triazole], for which the half-inhibitory concentration (IC50) under setting [2] lay in the range of 1000 to 5000 nM.
On the same count and under the same terms, then `C[C@H](Sc1nncn1C)c1cccc(NC(=O)N2CC(OC(F)(F)F)C2)c1` [Example 52, (S)—N-(3-(1-((4-methyl-4H-1,2,4-triazol-3-yl)thio)ethyl)phenyl)-3-(trifluoromethoxy)azetidine-1-carboxamide], with at least 5000 nM.
In the case of `C[C@H](Cc1nncn1C)c1cccc(NC(=O)N2CCc3cccnc32)c1` [Example 16, (R)—N-(3-(1-(4-methyl-4H-1,2,4-triazol-3-yl)propan-2-yl)phenyl)-2,3-dihydro-1H-pyrrolo[2,3-b]pyridine-1-carboxamide], the IC50 under setting [1] fell in the range of 100 to 1000 nM and the IC50 under setting [2] was in the range of 100 to 1000 nM.
Consider `Cn1cnnc1CC1(c2cccc(NC(=O)N3CC4(CCNC4)Oc4cccnc43)c2)COC1` (stereo not shown) [Example 26, N-(3-(3-((4-methyl-4H-1,2,4-triazol-3-yl)methyl)oxetan-3-yl)phenyl)spiro[pyrido[3,2-b][1,4]oxazine-2,3′-pyrrolidine]-4(3H)-carboxamide], for which the half-inhibitory concentration (IC50) under setting [2] was below 100 nM.
